In brackets after ≈: the same amount, converted by molar mass. Entries after “also recorded” stand apart in the source; their conditions may differ.
Key:
[1] = ref Vandermeulen et al., 2006; cited from earlier work
[2] = Determination of aqueous solubility; assay type: physicochemical; conditions: phosphate buffer, pH 7, aqueous buffer, thermodynamic from solid
[3] = tested on: L. infantum axenic amastigotes; experiment: Axenic amastigote assay; assay type: cell-based, Leishmania infantum
[4] = tested on: L. infantum intracellular amastigotes in U937 macrophages; experiment: In vitro macrophage infection and intracellular amastigote assay; assay type: cell-based, Leishmania infantum; conditions: infected U937 macrophages, 20 μM

SMILES | solubility thermodynamic at 72 h [2] | activity against intracellular amastigotes (in words) [4] | further results
C[C@@H]1[C@H](O)[C@@H](C)/C=C/C=C/C=C/C=C/C=C/C=C/C=C/[C@H](O[C@@H]2O[C@H](C)[C@@H](O)[C@H](N)[C@@H]2O)C[C@@H]2O[C@](O)(C[C@@H](O)C[C@@H](O)[C@H](O)CC[C@@H](O)C[C@@H](O)CC(=O)O[C@H]1C)C[C@H](O)[C@H]2C(=O)O [Amphotericin B] | – | – | aqueous solubility [1]: 1 µg/mL (≈ 1.08 µM)
COc1ccc(NS(=O)(=O)c2ccc(N)cc2)cc1OC [Compound 26, 4-Amino-N-(3,4-dimethoxyphenyl)benzenesulfonamide] | 55 µg/mL (≈ 178 µM) | – | –
COc1ccc(S(=O)(=O)Nc2cc(C#N)ccc2OS(=O)(=O)c2ccc(OC)cc2)cc1 [Compound 276B, 4-cyano-2-((4-methoxyphenyl)sulfonamido)phenyl 4-methoxybenzenesulfonate] | – | active | Selectivity index Axenic amastigotes ([3]; IC50 cellular cytotoxicity (HeLa)/IC50 antileishmanial activity): 11.5
COc1ccc(S(=O)(=O)N(Cc2ccccc2)c2ccc(OC)nc2)cc1 [Compound 279, N-benzyl-4-methoxy-N-(6-methoxypyridin-3-yl)benzenesulfonamide] | – | inactive | –
COc1cc(N)c(NS(=O)(=O)c2ccc(N(C)C)cc2)cc1OC [Compound 35, N-(2-amino-4,5-dimethoxyphenyl)-4-(dimethylamino)benzenesulfonamide] | 118 µg/mL (≈ 336 µM) | – | –
COc1ccc(S(=O)(=O)Nc2c(C(=O)Nc3c(C(=O)O)cc(OC)c(OC)c3OC)cc(OC)c(OC)c2OC)cc1 [Compound 63B, 3,4,5-trimethoxy-2-(3,4,5-trimethoxy-2-((4-methoxyphenyl)sulfonamido)benzamido)benzoic acid] | 1890 µg/mL (≈ 3110 µM) | – | –
COc1ccc(S(=O)(=O)Nc2cc(OC)c(NC(=O)CCl)cc2OC)cc1 [Compound 129, 2-Chloro-N-(2,5-dimethoxy-4-((4-methoxyphenyl)sulfonamido)phenyl)acetamide] | – | active; also recorded: infection clearly interrupted | Leishmania infantum Axenic amastigotes IC50 (μM) ([3]; 48 h treatment, XTT): sub-micromolar
